In patent US20110288052A1, “NOVEL COMPOUNDS, PHARMACEUTICAL COMPOSITIONS CONTAINING SAME, AND METHODS OF USE FOR SAME” (priority 2008, published 2011):
≈ marks a conversion by molar mass, not a printed value. Where two headings read alike, the source gives them in different places.

Tests used:
[1] = tested on: MCF-7 human breast cancer cells (fatty acid oxidation pathway activity); assay: Fatty acid oxidation ([14C]palmitate to acid soluble products); format: cell-based; conditions: for Emax at 0.098 µg/mL: at 0.098 μg/ml
Experimental: Measurement of Fatty Acid Oxidation and Determination of SC150 of Compounds This assay measures the degradation of [^14C]palmitate into acid soluble products and is a measure of fatty acid oxidation pathway activity in vitro. It is utilized to measure fatty acid oxidation in vitro. MCF-7 human breast cancer cells cultured as above, are plated at 2.5×10^5 cells per well in 24-well plates. Following overnight incubation, the compounds to be tested, solubilized in DMSO, are added at […], 0.39, 1.56, 6.25, 25, and 100 μg/ml in triplicate, with lower concentrations tested if necessary. DMSO is added to triplicate wells for a vehicle control. C75 is run at 5 and 10 μg/ml in triplicate as positive controls. After 1 hour of incubation, medium is removed 100 uM of [^14C] palmitate in cyclodextran and 200 uM carnitine in serum free medium (250 μl volume) is added to each well. After 30 minutes of additional incubation, the reaction is stopped by addition of 2.6N HClO4. Contents of each well are transferred to 1.5 ml Eppendorf tubes and 4N KOH is added. The tubes are incubated for 30 minutes at 60° C. 1 M NaAcetate and 3N H2SO4 is added to each tube and vortexed. The tubes are centrifuged at 1000 rpm for 5 minutes at RT. 250 μl of the supernatant is transferred to a 2 ml eppendorf tube. To each tube is added: 938 μl of chloroform:methanol (1:1), 468 μl chloroform and 281 μl of deionized water. The tubes are vortexed and centrifuged at 1000 rpm for 5 minutes at RT. 750 μl of the upper phase is transferred into a scintillation vial 5 ml of scintillant is added and vials are counted for 1 minute for ^14C. The Beckman Scintillation counter calculates the average cpm values for triplicates. The SC150 for the compounds is defined as the concentration of drug leading to a 150% increase in production of acid soluble products of [^14C] palmitate as compared to untreated controls. This is determined by plotting the average cpm for each inhibitor concentration tested, performing linear regression and computing the best-fit line, r^2 values, and 95% confidence intervals. The average cpm values are computed by the Beckman scintillation counter (Model LS6500) for each compound concentration. Computation of linear regression, best-fit line, r^2, and 95% confidence intervals are calculated using Prism Version 3.0 (Graph Pad Software). If a compound fails to achieve this 150% threshold it is considered negative. The maximum value achieved is also reported (FAO Max).

HCT116 cells = assay: XTT cytotoxicity assay, HCT116 (H); format: cell-based; conditions: Homo sapiens, HCT-116
Experimental: (§1) XTT Cytotoxicity Assay The XTT assay is a non-radioactive alternative for the [^51Cr] release cytotoxicity assay. XTT is a tetrazolium salt that is reduced to a formazan dye only by metabolically active, viable cells. The reduction of XTT is measured spectrophotometrically as OD490-OD650. To measure the cytotoxicity of specific compounds against cancer cells, 9×10^3 MCF-7 human breast cancer cells (shown in the tables as “(M)”), obtained from the American Type Culture Collection are plated per well in 96 well plates in DMEM medium with 10% fetal bovine serum, insulin, penicillin, and streptomycin. Following overnight culture at 37° C. and 5% CO2, the compounds to be tested, dissolved in DMSO, are added to the wells in 1 μl volume at the following concentrations: 80, 40, 20, 10, 5, 2.5, 1.25, and 0.625 μg/ml in triplicate. Additional concentrations are tested if required. 1 μl of DMSO is added to triplicate wells are the vehicle control. C75 is run at 40, 20, […], and 5 μg/ml in triplicate as positive controls. After 72 hours of incubation, cells are incubated for 4 hours with the XTT reagent as per manufacturer's instructions (Cell Proliferation Kit II (XTT) Roche). Plates are read at OD490 and OD650 on a Molecular Devices SpectraMax Plus Spectrophotometer. Three wells containing the XTT reagent without cells serve as the plate blank. XTT data are reported as OD490-OD650. Averages and standard error of the mean are computed using SOFTmax Pro software (Molecular Dynamics). The IC50 for the compounds is defined as the concentration of drug leading to a 50% reduction in OD490-OD650 compared to controls. The OD490-OD650 are computed by the SOFTmax PRO software (Molecular Devices) for each compound concentration. IC50 is calculated by linear regression, plotting the FAS activity as percent of control versus drug concentrations. Linear regression, best-fit line, r^2, and 95% confidence intervals are determined using Prism Version 3.0 (Graph Pad Software). The test was also run against OVCAR3 cells (“OV”), and HCT116 cells (“H”).

[2] = tested on: MCF-7 human breast cancer cells; assay: XTT cytotoxicity assay, MCF-7 (M); format: cell-based; conditions: MCF7, MCF-7, 72 hours
Experimental: XTT Cytotoxicity Assay The XTT assay is a non-radioactive alternative for the [^51Cr] release cytotoxicity assay. XTT is a tetrazolium salt that is reduced to a formazan dye only by metabolically active, viable cells. The reduction of XTT is measured spectrophotometrically as OD490-OD650. To measure the cytotoxicity of specific compounds against cancer cells, 9×10^3 MCF-7 human breast cancer cells (shown in the tables as “(M)”), obtained from the American Type Culture Collection are plated per well in 96 well plates in DMEM medium with 10% fetal bovine serum, insulin, penicillin, and streptomycin. Following overnight culture at 37° C. and 5% CO2, the compounds to be tested, dissolved in DMSO, are added to the wells in 1 μl volume at the following concentrations: 80, 40, 20, 10, 5, 2.5, 1.25, and 0.625 μg/ml in triplicate. Additional concentrations are tested if required. 1 μl of DMSO is added to triplicate wells are the vehicle control. C75 is run at 40, 20, […], and 5 μg/ml in triplicate as positive controls. After 72 hours of incubation, cells are incubated for 4 hours with the XTT reagent as per manufacturer's instructions (Cell Proliferation Kit II (XTT) Roche). Plates are read at OD490 and OD650 on a Molecular Devices SpectraMax Plus Spectrophotometer. Three wells containing the XTT reagent without cells serve as the plate blank. XTT data are reported as OD490-OD650. Averages and standard error of the mean are computed using SOFTmax Pro software (Molecular Dynamics). The IC50 for the compounds is defined as the concentration of drug leading to a 50% reduction in OD490-OD650 compared to controls. The OD490-OD650 are computed by the SOFTmax PRO software (Molecular Devices) for each compound concentration. IC50 is calculated by linear regression, plotting the FAS activity as percent of control versus drug concentrations. Linear regression, best-fit line, r^2, and 95% confidence intervals are determined using Prism Version 3.0 (Graph Pad Software).

OVCAR3 cells = assay: XTT cytotoxicity assay, OVCAR3 (OV); format: cell-based; conditions: Homo sapiens
Experimental: as §1

[3] = tested on: Enterococcus faecalis (ATCC # 29212); assay: Broth microdilution antimicrobial assay, E. faecalis; format: cell-based
Experimental: Antimicrobial Properties A broth microdilution assay is used to assess the antimicrobial activity of the compounds. Compounds are tested at twofold serial dilutions, and the concentration that inhibits visible growth (OD600 at 10% of control) is defined as the MIC. Microorganisms tested include Staphylococcus aureus (ATCC # 29213), Enterococcus faecalis (ATCC # 29212), Pseudomonas aerpginosa (ATCC # 27853), and Escherichia coli (ATCC # 25922). The assay is performed in two growth media, Mueller Hinton Broth and Trypticase Soy Broth.
A blood (Tsoy/5% sheep blood) agar plate is inoculated from frozen stocks maintained in T soy broth containing 10% glycerol and incubated overnight at 37° C. Colonies are suspended in sterile broth so that the turbidity matches the turbidity of a 0.5 McFarland standard. The inoculum is diluted 1:10 in sterile broth (Mueller Hinton or Trypticase soy) and 195 μl is dispensed per well of a 96-well plate. The compounds to be tested, dissolved in DMSO, are added to the wells in 5 μl volume at the following concentrations: 25, 12.5, 6.25, 3.125, 1.56 and 0.78 μg/ml in duplicate. Additional concentrations are tested if required. 5 μl of DMSO added to duplicate wells are the vehicle control. Serial dilutions of positive control compounds, vancomycin (E. faecalis and S. aureus) and tobramycin (E. coli and P. aerpginosa), are included in each run.
After 24 hours of incubation at 37° C., plates are read at OD600 on a Molecular Devices SpectraMax Plus Spectrophotometer. Average OD600 values are computed using SOFTmax Pro Software (Molecular Devices) and MIC values are determined by linear regression analysis using Prism version 3.02 (Graph Pad Software, San Diego). The MIC is defined as the concentration of compound required to produce an OD600 reading equivalent to 10% of the vehicle control reading.

[4] = tested on: MCF-7 human breast cancer cells (fatty acid synthesis pathway activity); assay: [14C]acetate incorporation into total lipids; format: cell-based; conditions: MCF7, [14C]acetate incorporation into lipids
Experimental: Measurement of [^14C]acetate Incorporation into Total Lipids and Determination of IC50 of Compounds. This assay measures the incorporation of [^14C]acetate into total lipids and is a measure of fatty acid synthesis pathway activity in vitro. It is utilized to measure inhibition of fatty acid synthesis in vitro.
MCF-7 human breast cancer cells cultured as above, are plated at 5×10^4 cells per well in 24-well plates. Following overnight incubation, the compounds to be tested, solubilized in DMSO, are added at 5, 10, and 20 μg/ml in triplicate, with lower concentrations tested if necessary. DMSO is added to triplicate wells for a vehicle control. C75 is run at 5 and 10 μg/ml in triplicate as positive controls. After 4 hours of incubation, 0.25 μCi of [^14C]acetate (10 μl volume) is added to each well.
After 2 hours of additional incubation, medium is aspirated from the wells and 800 μl of chloroform:methanol (2:1) and 700 μl of 4 mM MgCl2 is added to each well. Contents of each well are transferred to 1.5 Eppendorf tubes, and spun at full-speed for 2 minutes in a high-speed Eppendorf Microcentrifuge 5415D. After removal of the aqueous (upper) layer, an additional 700 μl of chloroform:methanol (2:1) and 500 μl of 4 mM MgCl2 are added to each tube and then centrifuged for 1 minutes as above. The aqueous layer is removed with a Pasteur pipette and discarded. An additional 400 μl of chloroform:methanol (2:1) and 200 μl of 4 mM MgCl2 are added to each tube, then centrifuged and aqueous layer is discarded. The lower (organic) phase is transferred into a scintillation vial and dried at 40° C. under N2 gas. Once dried, 3 ml of scintillant (APB #NBC5104) is added and vials are counted for ^14C. The Beckman Scintillation counter calculates the average cpm values for triplicates.
The IC50 for the compounds is defined as the concentration of drug leading to a 50% reduction in [^14C]acetate incorporation into lipids compared to controls. This is determined by plotting the average cpm for each inhibitor concentration tested, performing linear regression and computing the best-fit line, r^2 values, and 95% confidence intervals. The average cpm values are computed by the Beckman scintillation counter (Model LS6500) for each compound concentration. Computation of linear regression, best-fit line, r^2, and 95% confidence intervals are calculated using Prism Version 3.0 (Graph Pad Software).

[5] = Solubility problem noted during the assays; format: physicochemical; conditions: read-out: Sol Prob (solubility problem at concentration)
[6] = Homo sapiens, MCF7, read-out: FAO Max

SMILES	Emax at 1.56 µg/mL ([1]; Homo sapiens, MCF7, at 1.56 μg/ml, read-out: FAO Max)	IC50 (HCT116 cells)	IC50 [2]	IC50 (OVCAR3 cells; OVCAR-3)	Emax at 0.098 µg/mL [1, 6]	EF/MH (MIC) ([3]; Mueller Hinton Broth)	EF/Tsoy (MIC) ([3]; Trypticase Soy Broth)	IC50 [4]	solubility [5]	Emax at 6.25 µg/mL ([1]; Homo sapiens, MCF7, at 6.25 μg/ml, read-out: FAO Max)	FAO SC 150 ([1]; concentration leading to 150% of control acid soluble products, Neg = threshold not reached)	solubility ([5]; noted under the 14C column, unit inferred)	IC50 (OVCAR3 cells; OVCAR-3, unit given as ml)
CCCCCCCCC1(C)SC(=O)C=C1OCC(=O)N1CCN(c2ccc(C(F)(F)F)cc2)CC1 (centres unmarked)	118%	> 80 µg/mL	50.7 µg/mL (≈ 98.9 µM)	> 80 µg/mL	–	–	–	–	–	–	–	–	–
CCCCCCCCC1(C)SC(=O)C=C1OCC(=O)N1CCN(c2ccc(Cl)cc2)CC1 (centres unmarked)	–	9.7 µg/mL (≈ 20.2 µM)	35.7 µg/mL (≈ 74.5 µM)	24.4 µg/mL (≈ 50.9 µM)	79%	–	–	–	–	–	–	–	–
CCCCCCCCC1(C)SC(=O)C=C1OCC(=O)N1CCN(Cc2ccc(OC)cc2)CC1 (centres unmarked)	–	69.7 µg/mL (≈ 143 µM)	13.6 µg/mL (≈ 27.8 µM)	79.8 µg/mL (≈ 163 µM)	83%	–	–	–	–	–	–	–	–
CCCCCCCCC1(C)SC(=O)C=C1OCC(=O)N1CCN(c2ccc(OC)cc2)CC1 (centres unmarked)	–	> 80 µg/mL	> 80 µg/mL	> 80 µg/mL	53%	–	–	–	–	–	–	–	–
CCCCCCCCC1(C)SC(=O)C=C1OCC(=O)Nc1ccc(C)cc1 (centres unmarked)	–	12.8 µg/mL (≈ 32.9 µM)	6.8 µg/mL (≈ 17.5 µM)	8.1 µg/mL (≈ 20.8 µM)	–	Neg	Neg	–	–	–	–	–	–
CCCCCCCCC1(C)SC(=O)C=C1OCC(=O)Nc1ccc(S(N)(=O)=O)cc1 (centres unmarked)	–	8.7 µg/mL (≈ 19.1 µM)	7 µg/mL (≈ 15.4 µM)	13.4 µg/mL (≈ 29.5 µM)	–	–	–	26.3 µg/mL (≈ 57.9 µM)	80 µg/mL (≈ 176 µM)	–	–	–	–
CCCCCCCCC1(C)SC(=O)C=C1OCC(=O)Nc1ccc(C(=O)OC)cc1 (centres unmarked)	–	6.3 µg/mL (≈ 14.5 µM)	6.5 µg/mL (≈ 15 µM)	–	–	–	–	–	–	126%	Neg	80 µg/mL (≈ 185 µM)	12.7 µg/mL (≈ 29.3 µM)
